Reference: PMC10574562 (Molecules, 2023)
“Also recorded” adds a separate entry of the source.

How the values were obtained:
[1] = Determination of distribution coefficient LogD7.4 (1-octanol/PBS); type: physicochemical; conditions: 1-octanol/PBS pH 7.4; ± SD; read-out: Log D7.4
Description: (§1) We experimentally confirmed their predicted poor to medium–good permeability profile by measuring their LogD at physiological pH through a known procedure, and by determining their percentage bound to model lipid bilayers after incubation, as a measure of their affinity for cell-membrane-like liposomes. Results are shown in Table 2 (LogD7.4, column 2; interaction with liposomes at 20 °C and 37 °C, columns 3 and 4, respectively).
LogD7.4 values were determined by slightly modifying a reported procedure. Namely, an 80 mM solution of each selected EDA analogue in DMSO was diluted in 1-octanol at a final 800 μM concentration. UV–vis spectra were acquired to determine λmax and the necessary dilutions to obtain absorption values for each tested analogue; between 0.5 and 1. 5 mL of each solution were placed in 15 mL conical centrifuge tubes, PBS was added (5 mL, pH 7.4) and the biphasic system was vigorously mixed using a vortex mixer (VELP Scientifica, Usmate Velate, MB, Italy) for 4 min. After centrifugation (2000× g, 30 min), the 1-octanol phase absorption was measured at each compound’ λmax; the procedure was repeated to acquire data in triplicate. The distribution coefficient logD7.4 was calculated according to the following equation: LogD7.4 = Log ([C]oct/[C]PBS) = Log (Af/Ai − Af)(2) where Ai is the pre-extraction measured absorbance in 1-octanol and Af is the post-extraction final measured absorbance in 1-octanol.

[2] = Interaction with liposome cell membrane models; type: in vitro ADME
Description: as §1
EDA analogues dissolved in MeOH (0.1 mL) were added to 0.9 mL of large unilamellar phosphatidylcholine vesicles (PC LUVs) in PBS (3 mM lipid final concentration; 0.6 mM EDA analogue final concentration) and incubated at 37 °C for 20 min. Then, any remaining free EDA analogue was separated from liposomes by size-exclusion chromatography.
A disposable syringe (2.5 mL) packed with hydrated Sephadex G-50 resin was placed in a 15 mL plastic test tube and preconditioned with PBS; then, the liposomal suspension (1 mL) was gently added on the top of the syringe and centrifuged at 500× g for 10 min. The eluate was collected at the bottom of the test tube and lysed by addition of Triton X-100 (final concentration 1% v/v). The concentration of each EDA analogue in each solution was estimated with the Folin–Ciocalteu assay. Namely, 50% Folin–Ciocalteu reagent (150 μL) was added to test samples (50 μL) into a 96-well microplate and shaken. After 10 min, a 7.5% sodium carbonate solution (0.1 mL) was added; the mixtures were incubated in the dark for 1 h at rt; and, finally, the absorbance was measured at 765 nm on a BioTek SynergyHT MicroPlate Reader spectrophotometer (Marshall Scientific, Hampton, NH, USA) using an appropriate blank. Reference calibration curves were plotted for every sample. The ratio (%) of the drug incorporated into the lipid bilayer was then calculated according to the following equation:% ratio of incorporated antioxidant = 100 × [incorporated amount]/[added amount](3)

Cu-induced ROS = Cu-induced ROS inhibition; conditions: ± SD
Description: Table 2 In vitro profiling for EDA 1 and selected analogues 2b, 2c and 4a. | column: Cu-Induced ROS Inhibition ^c,a

[3] = DPPH radical scavenging assay; conditions: 25 µM analogue, 100 µM DPPH, MeOH, 30 min incubation
Description: A DPPH assay was carried out after 30 min of incubation with EDA 1 and its analogues in reported conditions to determine their radical scavenging ability.
The DPPH free radical scavenging activity of EDA analogues was determined using a previously described method. Appropriate aliquots of putative antioxidants 1–13c were mixed with DPPH in methanol (25 µM EDA analogue, 100 µM DPPH, final concentration); the reaction mixtures were shaken and then incubated for 30 min in the dark. Their absorbances, and the absorbance of a DPPH solution as a negative control, were then measured at 517 nm with a BioTek SynergyHT MicroPlate Reader spectrophotometer (Marshall Scientific, Hampton, NH, USA) against methanol as blank. The scavenging percentage of each EDA analogue was calculated according to the following equation:DPPH radical scavenging (%) = [(Acontrol—Asample)/Acontrol] × 100,(1) where Acontrol is the control absorbance obtained by adding a methanol aliquot equal to the EDA analogue solution volume added to the methanolic DPPH solution and Asample is the absorbance of each test solution after 30 min incubation. All experiments were repeated at least three times, and measurements were run in triplicate.

[4] = test system: oligodendrocyte progenitor cells (OPCs); experiment: MTT reduction assay on purified OPC cultures; type: cell-based, mouse; conditions: 10 μM; for Effect on metabolic activity of OPCs (MTT reduction): 48 h incubation, purified mouse OPCs, vs DMSO controls
Description: Purified mouse OPCs were grown for 24 h and treated with EDA 1 and analogues 2b–4c (10 μM) for 44 h; then, MTT was added and OPCs were incubated for 4 h.
Primary cultures of purified OPC (>99%) were obtained from the cerebral hemispheres of newborn CD1 Swiss mice according to the authorization for the care and use of laboratory animals mentioned in Section 4.2.1. OPCs were grown in a defined serum-free Dulbecco’s Modified Eagle Medium (DMEM) without thyroid hormones at 1 × 10^5 cells/cm^2 into poly-L-lysine-coated 96-well microtiter plates for 3 days.
One day after plating, purified OPCs were incubated with or without EDA analogues (10 µM) in DMSO (0.001% vehicle) for 48 h. MTT reduction to formazan was carried out as previously described. MTT (Sigma-Aldrich, Milan, Italy) was added to the culture medium at a final 0.25 mg/mL concentration during the last 4 h of incubation.

[5] = Chemical stability in biological media (DPPH assay and TLC); type: in vitro ADME; conditions: PBS and standard medium, 20 min
Description: We investigated the stability of 4′-ester EDA 2c and N^1-carbamate 4′-ester EDA 4a (respectively, black and grey bars, Figure 5) in biological media, checking both ester and N^1-carbamate stability in 4a both by thin-layer chromatography (TLC) and by checking the DPPH radical scavenging activity of 2c and 4a after incubation.
Namely, 2c and 4a were incubated in PBS and in standard medium at 20 °C and 37 °C for 20 min; then, DPPH was added and the radical scavenging activity was measured in all media.
4′-Ester 2c and N^1-carbamate ester 4a were incubated in PBS and in a standard cell culture medium supplemented with FBS 10% at 20 °C and 37 °C. After 20 min, appropriate aliquots of the solutions were mixed with DPPH in methanol (25 µM, DPPH 100 µM, final concentration) and the DPPH radical scavenging assay was carried out as described above. Assay media after incubation were also monitored by TLC (eluent mixture: 1:1 cyclohexane/AcOEt).

[6] = test system: oligodendrocyte progenitor cells (OPCs); experiment: MTT reduction assay on purified OPC cultures; type: cell-based, mouse; conditions: lower dosages than 10 μM (not shown)

Row | logD [1] | Affinity for a Model Lipid Bilayer, % ratio of liposome-bound EDA analogue ([2]; 20 °C) | Affinity for a Model Lipid Bilayer, % ratio of liposome-bound EDA analogue ([2]; 37 °C) | IC50 (Cu-induced ROS) | SMILES | DPPH radical scavenging/antioxidant activity [3] | Effect on metabolic activity of OPCs (MTT reduction) [4] | also measured
1 | 1.1 ± 0.1 | 37 ± 3% | 53 ± 2% | 14 ± 2 µM | CC1=NN(c2ccccc2)C(=O)C1 [Compound 1, edaravone, reference compound] | – | – | –
2 | -0.74 ± 0.19 | 38 ± 4% | 45 ± 2% | 38 ± 5 µM | CC1=NN(c2ccc(C(=O)O)cc2)C(=O)C1 [Compound 2b] | significantly more potent than EDA 1; also recorded: significantly higher antioxidant activity than parent EDA 1 | – | –
3 | 1 ± 0.1 | 52 ± 2% | 71 ± 2% | 53 ± 7 µM | COC(=O)c1ccc(N2N=C(C)CC2=O)cc1 [Compound 2c, Methyl 4-(3-methyl-5-oxo-4,5-dihydro-1H-pyrazol-1-yl)benzoate] | comparable antioxidant activity to EDA 1 | stimulated OPC metabolism comparably to EDA 1; also recorded: comparable stimulation of OPC metabolism | DPPH radical scavenging activity after incubation in biological media ([5]; 20 °C and 37 °C): expected radical scavenging activity; Stability in biological media by TLC ([5]; 20 °C and 37 °C): stability in biological media was confirmed
4 | – | – | – | – | CC1=NN(c2ccc(C(=O)NCCN=[N+]=[N-])cc2)C(=O)C1 [Compound 2d] | comparable antioxidant activity to EDA 1 | did not stimulate OPC development compared to DMSO controls; also recorded: lack of activity on OPCs | –
5 | – | – | – | – | CC1=NN(c2ccc(C(=O)NCCCCCCN=[N+]=[N-])cc2)C(=O)C1 [Compound 2e] | – | did not stimulate OPC development compared to DMSO controls; also recorded: lack of activity on OPCs | –
6 | – | – | – | – | CC1=NN(c2ccc(C(=O)NCc3ccc(C4(C(F)(F)F)N=N4)cc3)cc2)C(=O)C1 [Compound 2f] | – | lack of activity on OPCs | Cytotoxicity on OPCs in MTT assay [4]: cytotoxic at this concentration; OPC activity in MTT assay at lower dosages [6]: inactive at lower dosages
7 | – | – | – | – | CC1=NN(c2ccc(CO)cc2)C(=O)C1 [Compound 2g] | comparable antioxidant activity to EDA 1 | – | –
8 | – | – | – | – | CC1=NN(c2ccc(CN=[N+]=[N-])cc2)C(=O)C1 [Compound 2h] | comparable antioxidant activity to EDA 1 | did not stimulate OPC development compared to DMSO controls; also recorded: lack of activity on OPCs | –
9 | – | – | – | – | CCC1=NN(c2ccccc2)C(=O)C1 [Compound 3a] | comparable antioxidant activity to EDA 1 | – | Cytotoxicity on OPCs in MTT assay [4]: cytotoxic at this concentration; OPC activity in MTT assay at lower dosages [6]: inactive at lower dosages
10 | – | – | – | – | O=C1CC(COCc2ccccc2)=NN1c1ccccc1 [Compound 3b] | comparable antioxidant activity to EDA 1 | – | –
11 | 2.3 ± 0.4 | 88 ± 6% | 77 ± 4% | 65 ± 6 µM | COC(=O)c1ccc(-n2c(=O)cc(C)n2C(=O)OC(C)(C)C)cc1 [Compound 4a, Tert-butyl 2-(4-(methoxycarbonyl)phenyl)-5-methyl-3-oxo-2,3-dihydro-1H-pyrazole-1-carboxylate] | – | stimulated OPC metabolism comparably to EDA 1; also recorded: comparable stimulation of OPC metabolism | DPPH radical scavenging activity after incubation in biological media ([5]; 20 °C): did not scavenge DPPH; Stability in biological media by TLC ([5]; 20 °C): stability was confirmed by TLC; DPPH radical scavenging activity after incubation in biological media ([5]; 37 °C): significant antioxidant activity was detected; Stability in biological media by TLC (N^1-carbamate) ([5]; 37 °C): N^1-carbamate hydrolysis and 2c formation; also recorded: fully removed
